Data published in PubChem BioAssay (NCI).
Values joined by “and” are separate entries in the source; they are usually repeats but may differ in a detail not shown here. Equal entries are not always repeated.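 A five-concentration, 48-hour dose response in 96-well plates underlies each endpoint, interpolated linearly between surrounding concentrations. GI50 = concentration required for 50% inhibition of growth. The concentration for full growth arrest is given as TGI.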

Legend:
Assay in all cases: inhibition of tumour cell growth, NCI panel, 48 h
COLO 205 colon = system: COLO 205 colon
HL-60(TB) leukemia = system: HL-60(TB) leukemia
OVCAR-3 ovarian = system: OVCAR-3 ovarian
SK-MEL-28 melanoma = system: SK-MEL-28 melanoma
SNB-19 CNS = system: SNB-19 CNS
SW-620 colon = system: SW-620 colon
TK-10 renal = system: TK-10 renal
A498 renal = system: A498 renal
SF-539 CNS = system: SF-539 CNS
SN12C renal = system: SN12C renal

Structure (SMILES) | TGI (COLO 205 colon) | TGI (HL-60(TB) leukemia) | TGI (OVCAR-3 ovarian) | TGI (SK-MEL-28 melanoma) | TGI (SNB-19 CNS) | TGI (SW-620 colon) | TGI (TK-10 renal) | TGI (A498 renal) | TGI (SF-539 CNS) | TGI (SN12C renal) | GI50 (A498 renal) | GI50 (COLO 205 colon) | GI50 (OVCAR-3 ovarian) | GI50 (SF-539 CNS) | GI50 (SK-MEL-28 melanoma) | GI50 (SN12C renal) | GI50 (SNB-19 CNS) | GI50 (SW-620 colon) | GI50 (HL-60(TB) leukemia) | GI50 (TK-10 renal)
CC(=O)CCCCCCCCCCCC[C@@H]1CC[C@H](C)[C@H](O)N1 | > 100 µM | > 100 µM | > 100 µM | > 100 µM | > 100 µM | > 100 µM | > 100 µM |  |  |  |  |  |  |  |  |  |  |  |  | 
O=C1C=C[C@@]23CC1C(O)C[C@H]2C=Cc1ccccc13 (stereo partly specified) | > 100 µM | > 100 µM | > 100 µM |  | > 100 µM | > 100 µM |  | > 100 µM | > 100 µM | > 100 µM |  |  |  |  |  |  |  |  |  | 
COCCn1cc(-c2csc(-c3c[nH]c4ccccc34)n2)c2cccnc21 | > 100 µM |  | > 100 µM | > 100 µM | > 100 µM | > 100 µM |  | 9.56 µM | > 100 µM | > 100 µM | 3.03 µM | 2.66 µM | 2.94 µM | 5.91 µM | 8.18 µM | > 100 µM | 16.2 µM | 3.52 µM |  | 
Cc1ccc(C(CN(C)C)C(=O)c2ccccc2)cc1 (stereo unspecified) | 4.91 µM | 5.24 µM | 3.55 µM | 8.37 µM | 24.3 µM | 2.71 µM |  | 28.6 µM | 10.7 µM | 11.5 µM | 13.5 µM | 2.2 µM | 1.86 µM | 3.09 µM | 2.83 µM | 3.59 µM | 10.4 µM | 0.894 µM | 2.19 µM | 
N#CC(C(=O)/C(=N/N)C(C#N)c1ccc(Cl)cc1)c1ccc(Cl)cc1 (stereo unspecified) | > 100 µM | > 100 µM | > 100 µM |  | > 100 µM | > 100 µM | > 100 µM | > 100 µM | > 100 µM | > 100 µM |  |  |  |  |  |  |  |  |  | 
COc1ccc(C=C2C(=O)OC(C)(C)OC2=O)cc1OC | > 100 µM |  | > 100 µM | > 100 µM | > 100 µM | > 100 µM | > 100 µM | > 100 µM |  | > 100 µM |  |  |  |  |  |  |  |  |  | 
C[C@]12CCC3[C@@H](C[C@@H]4SC(Nc5ccccc5)=N[C@@]45CC(=O)CC[C@]35C)[C@@H]1CCC2=O (stereo partly specified) | 37.4 µM |  | 50.8 µM | > 100 µM | > 100 µM | 15.6 µM | 54.8 µM | > 100 µM | 13.3 µM | 25.3 µM | 28.8 µM | 12.3 µM | 4.41 µM | 3.04 µM | 20.5 µM | 3.81 µM | 12.9 µM | 3.38 µM |  | 7.46 µM
[Cl][Bi]([O]c1ccccn1)[O]c1ccccn1 | > 100 µM |  | > 100 µM | > 100 µM | > 100 µM | > 100 µM | > 100 µM |  | > 100 µM | > 100 µM |  | > 100 µM | > 100 µM | > 100 µM | > 100 µM | > 100 µM | > 100 µM | > 100 µM |  | > 100 µM
Cc1ccc(NC(=O)CC2C(=O)Nc3ccccc3S2=O)cc1C (stereo unspecified) |  | > 100 µM | > 100 µM | > 100 µM | > 100 µM | > 100 µM | > 100 µM | > 100 µM | 47.5 µM | > 100 µM |  |  |  |  |  |  |  |  |  | 
C[C@@H]1C=C(CCCCCCCCCCC[C@H](O)[C@@H]2CCC(=O)O2)C(=O)O1 | 40.6 µM |  | 44.7 µM | > 100 µM | > 100 µM | > 100 µM | 63.8 µM | 68.7 µM | > 100 µM | 82.8 µM | 25.6 µM | 19.1 µM | 16.4 µM | 38.8 µM | 78.3 µM | 25.3 µM | 86.5 µM | 37.6 µM |  | 22.9 µM
CC(=O)Nc1ccc(C(=O)N2N=C(C)/C(=C/c3ccccc3O)C2=O)cc1 | > 100 µM | > 100 µM | > 100 µM | > 100 µM | > 100 µM | > 100 µM | > 100 µM |  | > 100 µM | > 100 µM |  |  |  |  |  |  |  |  |  | 
CCCC1c2c(ccc3ccccc23)Oc2ccc3ccccc3c21 | > 100 µM |  | > 100 µM | > 100 µM | > 100 µM | > 100 µM | 98.2 µM | 78 µM | > 100 µM | > 100 µM |  |  |  |  |  |  |  |  |  | 
CC1OC(n2ncc(=O)[nH]c2=O)C=CC1=O (stereo unspecified) | > 100 µM | 57.5 µM and 52.7 µM | > 100 µM | 93.8 µM and 46 µM | > 100 µM | > 100 µM | > 100 µM |  | > 100 µM and 47.9 µM | > 100 µM |  | > 100 µM and 36.9 µM |  |  |  |  | > 100 µM and 35.1 µM | > 100 µM and 44.1 µM |  | 
N[C@@H](Cc1c[nH]c2ccccc12)C(=O)NC1CCN(C(=O)c2c[nH]c3ccccc23)CC1 | > 100 µM | > 100 µM | > 100 µM | > 100 µM | > 100 µM | > 100 µM | > 100 µM |  | > 100 µM | > 100 µM |  | 47.9 µM | > 100 µM | > 100 µM | > 100 µM | > 100 µM | 99.8 µM | > 100 µM | > 100 µM | > 100 µM
Cc1c(C#N)cccc1-c1cc(-c2cn(Cc3cccc(C(C)(C)O)n3)nn2)nc(N)n1 | > 100 µM | 46 µM | > 100 µM | > 100 µM | > 100 µM | > 100 µM | > 100 µM |  | > 100 µM | > 100 µM |  | 25.9 µM | 17.6 µM | 39.6 µM | 39.1 µM | 17.2 µM | 47.4 µM | 51.3 µM | 12.2 µM | 18.2 µM
CSc1nc(NC2OCC(OC(C)=O)C(OC(C)=O)C2OC(C)=O)c2c(OC(C)=O)c(C)c(=O)oc2n1 (stereo unspecified) | > 100 µM | > 100 µM | > 100 µM |  | > 100 µM | > 100 µM | > 100 µM | > 100 µM | > 100 µM | > 100 µM |  |  |  |  |  |  |  |  |  | 
COc1ccc(/C=N/N=C(\N)NO)cc1OC | > 100 µM | > 100 µM | > 100 µM | > 100 µM | > 100 µM | > 100 µM | > 100 µM |  | 64.9 µM | > 100 µM |  |  |  |  |  |  |  |  |  | 
